This is an account of results in PubChem BioAssay (NCI).

“And” between values parts separate entries of the source, which are not always exact repeats. Equal values may be shown once.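 How tested: cells in 96-well plates exposed to compound for 48 hours at five concentrations. Abbreviation: GI50, concentration required for 50% inhibition of growth. Definition used: TGI = concentration required for complete inhibition of growth.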

Common to all, as to assay: inhibition of tumour cell growth, NCI panel, 48 h
The subject of experiment [1] is HCC-2998 colon.
The subject of experiment [2] is HOP-92 NSCLC.
Experiment [3] relates to HL-60(TB) leukemia.
Experiment [4] deals with HS 578T breast.
The subject of experiment [5] is OVCAR-8 ovarian.
In experiment [6] the test system is NCI/ADR-RES ovarian.
For experiment [7], the system named is MDA-MB-435.
Experiment [8] relates to IGROV1 ovarian.

Consider `COc1ccc(-c2nnc(Nc3nc(O)c(C4=c5cc(OC(F)(F)F)ccc5=NC4=O)s3)o2)cc1`, for which the GI50 in experiment [1] was 13.4 µM; in experiment [2] it was 15.7 µM; in experiment [3], 26.6 µM; in experiment [4] it was 38.3 µM; in experiment [5], 22.7 µM; in experiment [6], 20.2 µM. Also, the GI50 in experiment [7] was 7.46 µM; in experiment [8], 22 µM. The TGI was 28.6 µM in experiment [1]; 43.5 µM in experiment [2]; 47.7 µM in experiment [3]; over 100 µM in experiment [4]; 99.5 µM in experiment [5]; 75.4 µM in experiment [6]. The TGI in experiment [7] is over 100 µM; in experiment [8] it was 60.7 µM.

With `O=C(N/N=C/c1ccncc1)c1ccc(C(F)(F)F)nc1Nc1cccc(C(F)(F)F)c1`, the GI50 is 2.15 µM in experiment [1]; 1.82 µM in experiment [3]; 2.02 µM in experiment [4]; 2.39 µM in experiment [5]; 2.67 µM in experiment [6]; 3.66 µM in experiment [7]. The GI50 in experiment [8] is 1.41 µM. Besides, the TGI turned out to be 8.94 µM in experiment [1]; 8.2 µM in experiment [3]; 8.51 µM in experiment [4]; 10.4 µM in experiment [5]; 9.22 µM in experiment [6]; 13.7 µM in experiment [7]. In experiment [8], this molecule returned a TGI of 4.26 µM.

`O=C(NC1CCNCC1)c1[nH]ncc1NC(=O)c1c(Cl)cccc1Cl`: the GI50 was 0.396 µM and 0.328 µM in experiment [1]; 0.323 µM and 0.222 µM in experiment [2]; 0.305 µM and 0.285 µM in experiment [3]; 0.307 µM and 0.329 µM in experiment [4]; 0.659 µM and 0.66 µM in experiment [5]; over 100 µM in experiment [6]. Besides, the GI50 in experiment [7] is 0.37 µM and 0.335 µM; in experiment [8] it was 0.681 µM and 0.362 µM. Also, the TGI in experiment [1] is 12 µM and > 6.08 µM; in experiment [2], 0.671 µM; in experiment [3] it was 1.09 µM and 1.64 µM; in experiment [4] it was 3.83 µM and > 2.71 µM; in experiment [5], over 100 µM; in experiment [6], over 100 µM. For the same molecule, the TGI in experiment [7] is 1.72 µM and 1.58 µM; in experiment [8] it was over 55.2 µM.

`Cc1cc(C(=O)N2CCN(C)CC2)c2c(=O)n(-c3ccccc3)c(=O)n(CC(O)CN3CCN(c4ncccn4)CC3)c2n1` (centres undefined): the GI50 in experiment [1], in experiment [2], in experiment [3], in experiment [4], in experiment [6] and in experiment [7] was over 100 µM in each case. Besides, the GI50 in experiment [8] was over 100 µM. Moreover, the TGI in experiment [1], in experiment [2], in experiment [3], in experiment [4], in experiment [6] and in experiment [7] was over 100 µM in each case. Further, the TGI in experiment [8] was over 100 µM.

`O=C(O)c1ccccc1-c1ccccc1C(=O)Nc1ccc2c(c1)Cc1ccccc1-2`: the TGI in experiment [1] is 33.4 µM; in experiment [2] it was over 100 µM; in experiment [4], over 100 µM; in experiment [5], over 100 µM; in experiment [6] it was over 100 µM; in experiment [7], over 100 µM. This molecule yielded a TGI in experiment [8] of over 100 µM.

Take `S=C(Nc1ccc(Cl)cc1)SC1CCCCC1`: the TGI in experiment [1] is 39.3 µM; in experiment [2], 71.2 µM; in experiment [4], over 100 µM; in experiment [5] it was over 100 µM; in experiment [6] it was over 100 µM; in experiment [7], over 100 µM. Moreover, in experiment [8], the TGI was found to be 54.2 µM.

For `Cc1ccc(C2NC(=S)N3C(c4ccc(C)cc4)NC(=S)N23)cc1` (centres undefined), the GI50 in experiment [1] was 4.51 µM; in experiment [3], 1.88 µM; in experiment [4] it was 4.74 µM; in experiment [5] it was 7.36 µM; in experiment [6], 2.33 µM; in experiment [7], 0.666 µM. Moreover, in experiment [8], the GI50 was 8.5 µM. For the same molecule, the TGI in experiment [1] was 17.4 µM; in experiment [3] it was 5.67 µM; in experiment [4], 25 µM; in experiment [5], 25.1 µM; in experiment [6] it was 6.19 µM; in experiment [7], 4.14 µM. This molecule also had a TGI in experiment [8] of 22 µM.

In the case of `O=S(=O)(CC(O)C(Cl)(Cl)Cl)NNc1ccccc1` (centres undefined), the TGI in experiment [2], in experiment [3], in experiment [4], in experiment [5], in experiment [6] and in experiment [7] was over 100 µM each time. The TGI in experiment [8] was over 100 µM.

`O=C(O)CN(CC(=O)O)c1ccccc1`: the TGI in experiment [2], in experiment [3], in experiment [4], in experiment [5], in experiment [6] and in experiment [7] was over 100 µM each time. In addition, the TGI in experiment [8] is over 100 µM.

Consider `CCOC(=O)c1c(C(F)(F)F)n([O-])c2ccc(Cl)cc2[n+]1=O`, for which the GI50 in experiment [2] is 1.17 µM; in experiment [3], 1.93 µM; in experiment [4] it was 2.17 µM; in experiment [5], 2.06 µM; in experiment [6], 2.8 µM; in experiment [7], 1.68 µM. Moreover, in experiment [8], the GI50 was 1.85 µM. Further, the TGI in experiment [2] is 2.64 µM; in experiment [3], 4.07 µM; in experiment [4] it was 5.13 µM; in experiment [5], 3.9 µM; in experiment [6], 6 µM; in experiment [7] it was 3.85 µM. Moreover, the TGI in experiment [8] is 3.77 µM.

`Cc1ccc(S(=O)(=O)Nc2cccc(C)c2C)cc1`: the TGI was over 100 µM in experiment [1]; over 100 µM in experiment [2]; 87.1 µM in experiment [3]; over 100 µM in experiment [5]; over 100 µM in experiment [8].

On to `COC(=O)c1c2c(c(C)[n+]([O-])c1C)C(=O)C=C(NCc1ccc(Br)cc1)C2=O`, for which the GI50 was 0.491 µM in experiment [1]; 1.74 µM in experiment [2]; 0.309 µM in experiment [3]; 2.4 µM in experiment [4]; 0.332 µM in experiment [6]; 0.095 µM in experiment [7]. In addition, in experiment [8], the GI50 was 0.473 µM. In addition, the TGI in experiment [1] worked out at 1.9 µM; in experiment [2], 3.6 µM; in experiment [3], 1.5 µM; in experiment [4] it was 8.05 µM; in experiment [6] it was 3.31 µM; in experiment [7] it was 0.243 µM. In addition, in experiment [8], the TGI was determined as 2.14 µM.

Consider `COc1ccc(C2c3cc4c(c(OC)c3CC3OCC(=O)C32)OCO4)cc1OC` (centres undefined), for which the TGI in experiment [2] is over 100 µM; in experiment [3], under 0.01 µM; in experiment [4], 46.4 µM; in experiment [5], 46.9 µM; in experiment [6], 28.4 µM; in experiment [7] it was over 100 µM. This molecule came in with a TGI in experiment [8] of over 100 µM. Also, the GI50 in experiment [5] and in experiment [6] was under 0.01 µM throughout.
